In publication PMC11876601 (Molecular Systems Biology, 2025):
Like-named read-outs stand apart in the source and are kept apart here.

Experiments:
AsPC-1 cells = experiment: Cell proliferation assay, chemodrug + ATR inhibitor (Incucyte confluence, 72 h);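 note: underlying read-out for every value is AsPC-1 confluence after 72 h incubation at 37 °C and 5% CO2, divided by that well's starting confluence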
Procedure: Cells were seeded at 5000 cells/well into 96-well flat bottom plates (Eppendorf) and allowed to attach overnight. […] Cells were incubated for 72 h at 37 °C and 5% CO2. Cell confluence readouts at 72 h were either normalized to their initial confluence using the Incucyte software (AsPC-1) or used without prior normalization (all others). […] Each experiment was performed in triplicates, the data was plotted as mean ± standard deviation (s.d.).

PaTu-8988-T = experiment: cells; parameters: Viability of PDAC cell lines, ATPlite luminescence, 11-dose single-agent curve fit; conditions: Homo sapiens, PaTu 8988t, 72 h, read-out: EC50 [nM]
Procedure: (§1) Afterward, small amounts were transferred to 384-well intermediate plates (Greiner Bio-One GmbH, Germany). […] For drug combination screening, 1000 to 5000 cells were seeded into 384-well plates (CulturPlate™, Perkin Elmer, MA, USA) using a Multidrop™ Combi Reagent Dispenser (Thermo Scientific, MA, USA) in 50 µl medium per well 24 h prior to drug treatment (seeding densities see Appendix Table S1). […] The final DMSO concentration in each well was 0.2%. […] Eight wells per plate without library drug served as negative controls, and sixteen wells per plate containing 5 µM Staurosporine served as positive controls. […] Next, we analyzed the drug sensitivity of immortalized duct cell line HPDE to detect effects unrelated to pancreatic cancer.

HPDE = experiment: cells; parameters: Viability of PDAC cell lines, ATPlite luminescence, 11-dose single-agent curve fit; conditions: HPDE, 72 h, read-out: EC50 [nM]
Procedure: as §1

FAMPAC = experiment: cells; parameters: Viability of PDAC cell lines, ATPlite luminescence, 11-dose single-agent curve fit; conditions: 72 h, read-out: EC50 [nM]
Procedure: as §1

BxPC-3 = experiment: cells; parameters: Viability of PDAC cell lines, ATPlite luminescence, 11-dose single-agent curve fit; conditions: Homo sapiens, BXPC-3, 72 h, read-out: EC50 [nM]
Procedure: as §1

HuP-T4 = experiment: cells; parameters: Viability of PDAC cell lines, ATPlite luminescence, 11-dose single-agent curve fit; conditions: Homo sapiens, HuP-T4, 72 h, read-out: EC50 [nM]
Procedure: as §1

PANC-1 = experiment: cells; parameters: Viability of PDAC cell lines, ATPlite luminescence, 11-dose single-agent curve fit; conditions: Homo sapiens, PANC-1, 72 h, read-out: EC50 [nM]
Procedure: as §1

Dan-G = experiment: cells; parameters: Viability of PDAC cell lines, ATPlite luminescence, 11-dose single-agent curve fit; conditions: 72 h, read-out: EC50 [nM]
Procedure: as §1

Suit2-07 = experiment: cells; parameters: Viability of PDAC cell lines, ATPlite luminescence, 11-dose single-agent curve fit; conditions: 72 h, read-out: EC50 [nM]
Procedure: as §1

AsPC-1 = experiment: cells; parameters: Viability of PDAC cell lines, ATPlite luminescence, 11-dose single-agent curve fit; conditions: Homo sapiens, ASPC1, 72 h, read-out: EC50 [nM]
Procedure: as §1

Colo-357 = experiment: cells; parameters: Viability of PDAC cell lines, ATPlite luminescence, 11-dose single-agent curve fit; conditions: Homo sapiens, COLO357, 72 h, read-out: EC50 [nM]
Procedure: as §1

Capan-1 = experiment: cells; parameters: Viability of PDAC cell lines, ATPlite luminescence, 11-dose single-agent curve fit; conditions: Homo sapiens, CAPAN-1, 72 h, read-out: EC50 [nM]
Procedure: as §1

PSN-1 [1] = experiment: cells; parameters: Viability of PDAC cell lines, ATPlite luminescence, 11-dose single-agent curve fit; conditions: Homo sapiens, PSN1, 72 h, read-out: EC50 [nM]
Procedure: as §1

MiaPaCa-2 = experiment: cells; parameters: ATPlite luminescence viability of PDAC cell lines, 11-dose single-agent curves, 4-parameter fit; conditions: Homo sapiens, MIA PaCa-2, 72 h, read-out: EC50 [nM]
Procedure: as §1

PSN-1 [2] = experiment: cells; parameters: ATPlite luminescence viability of PDAC cell lines, 11-dose single-agent curves, 4-parameter fit; conditions: Homo sapiens, PSN1, 72 h, read-out: EC50 [nM]
Procedure: as §1

Structure (SMILES)	pEC50 (AsPC-1 cells)	sensitization of AsPC-1 cells to the chemodrug by Elimusertib (AsPC-1 cells)	EC50 (PaTu-8988-T)	EC50 (HPDE)	EC50 (FAMPAC)	EC50 (BxPC-3)	EC50 (HuP-T4)	EC50 (PANC-1)	EC50 (Dan-G)	EC50 (Suit2-07)	EC50 (AsPC-1)	EC50 (Colo-357)	EC50 (Capan-1)	EC50 (PSN-1 [1])	EC50 (MiaPaCa-2)	EC50 (PSN-1 [2])
O=C1[O][Pt]2([NH][C@@H]3CCCC[C@H]3[NH]2)[O]C1=O [Oxaliplatin]	6.56	sensitized	–	–	–	–	–	–	–	–	–	–	–	–	–	–
CN(C)C(=O)c1cc2cnc(Nc3ccc(N4CCNCC4)cn3)nc2n1C1CCCC1 [Ribociclib]	–	–	9690 nM	49.6 nM	401 nM	227 nM	1230 nM	> 10000 nM	3080 nM	985 nM	6480 nM	1280 nM	491 nM	2250 nM	1280 nM	–
CNC(=O)c1ccc(-c2cnc3ncc(Cc4ccc5ncccc5c4)n3n2)cc1F [Capmatinib]	–	–	> 10000 nM	1090 nM	8.91 nM	323 nM	3120 nM	> 10000 nM	451 nM	6000 nM	1.63 nM	–	6320 nM	521 nM	–	–
NC(=O)c1cnc2[nH]ccc2c1N[C@@H]1[C@@H]2CC3C[C@H]1C[C@@](O)(C3)C2 [Peficitinib]	–	–	> 10000 nM	8470 nM	> 10000 nM	> 10000 nM	116 nM	282 nM	3590 nM	2770 nM	> 10000 nM	6330 nM	> 10000 nM	–	3920 nM	6420 nM
